These results are taken from patent US20100022584A1, “Modulation of Glutamine Synthetase Activity” (priority 2006, published 2010).

Changes are numbered by the printed parent chain. Entries after “also recorded” stand apart in the source; their conditions may differ.

The target of assay [1] is T1, glutamine synthetase mutant S52A S53A (Escherichia coli, UniProt P0A9C5, S53A/S54A).
T1 construct: made in house; host or cells: E. coli YMC11 (glutamine synthetase auxotroph), pBluescript II SK+
T1 sequence (P0A9C5 2-469 S53A/S54A limits assumed): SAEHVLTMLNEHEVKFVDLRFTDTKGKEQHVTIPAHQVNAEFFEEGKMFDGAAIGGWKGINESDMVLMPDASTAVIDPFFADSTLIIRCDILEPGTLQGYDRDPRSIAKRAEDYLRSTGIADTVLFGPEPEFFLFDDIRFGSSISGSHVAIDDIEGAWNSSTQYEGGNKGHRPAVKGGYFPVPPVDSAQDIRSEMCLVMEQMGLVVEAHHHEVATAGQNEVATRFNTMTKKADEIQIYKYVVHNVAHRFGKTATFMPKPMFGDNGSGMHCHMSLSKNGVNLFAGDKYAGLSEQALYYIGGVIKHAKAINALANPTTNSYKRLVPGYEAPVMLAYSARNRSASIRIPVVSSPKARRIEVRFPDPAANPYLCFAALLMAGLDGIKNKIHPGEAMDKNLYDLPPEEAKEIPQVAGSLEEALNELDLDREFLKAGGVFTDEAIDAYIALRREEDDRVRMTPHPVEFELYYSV
Nature of the assay: HPLC forward-reaction glutamine synthetase assay with serine protease inhibitors. The format is biochemical, E. coli. Particulars: 1 mM inhibitor; for % Reduction in ADP-based Specific Activity / % Reduction in Glutamine-based Specific Activity / % Conversion: S52A S53A; for % Reduction in ADP-based Specific Activity / % Reduction in Glutamine-based Specific Activity: 60 min pre-incubation, vs no-inhibitor control, positive = activity increased; for % Conversion: glutamine-based divided by ADP-based specific activity.

Assay [2] deals with T2, glutamine synthetase mutant Y397V (Escherichia coli, UniProt P0A9C5, Y398V).
T2 construct: made in house; host or cells: E. coli YMC11 (glutamine synthetase auxotroph), pBluescript II SK+
T2 sequence (P0A9C5 2-469 Y398V limits assumed): T1 sequence (P0A9C5 2-469 S53A/S54A limits assumed) with A52S, A53S, Y397V
Described as above. Format: biochemical, E. coli. The following applies: 1 mM inhibitor; for inhibition of the enzyme (in words): HPLC assays; for % Conversion: glutamine-based divided by ADP-based specific activity.

`NCCc1ccc(S(=O)(=O)F)cc1` [AEBSF]: the entries for the “% Reduction in ADP-based Specific Activity” value in assay [1] (Mg assay) and in assay [1] (Mn assay) were −41.91% and −16.20%, respectively. Moreover, the “% Reduction in Glutamine-based Specific Activity” value in assay [1] (Mg assay) is recorded as −17.82%; in assay [1] (Mn assay) it was −7.69%. Also, the “% Conversion” value was 115% in assay [1] (Mg assay), 98% in assay [1] (Mn assay), 107% in assay [2] (Mg assay) and 108% in assay [2] (Mn assay). Also, the “inhibition of the enzyme (in words)” value in assay [2] is recorded as “appeared to cause inhibition”.

`O=S(=O)(F)Cc1ccccc1` [PMSF]: the “% Reduction in ADP-based Specific Activity” value is listed as −23.74% in assay [1] (Mg assay) and −13.56% in assay [1] (Mn assay). The entries for the “% Reduction in Glutamine-based Specific Activity” value in assay [1] (Mg assay) and in assay [1] (Mn assay) were −23.24% and −16.92%, respectively. The “% Conversion” value in assay [1] (Mg assay) is 82%; in assay [1] (Mn assay) it was 85%; in assay [2] (Mg assay), 78%; in assay [2] (Mn assay), 61%. Besides, the “inhibition of the enzyme (in words)” value in assay [1] (S52A S53A (double serine mutant), HPLC assays) is listed as “did not significantly inhibit; also recorded: not significantly inhibited”; in assay [2] it was “found to inhibit”.
